Results: US11072614B2, “Polymorphs of sepiapterin and salts thereof” (PTC Therapeutics MP, Inc., priority 2016, dated 2021)

What was measured:
Format in all cases: physicochemical
[1] = Storage stability study of solid forms, HPLC purity (Example 11); details: for % of Initial / Purity (area %): 10% RH
Description: (§1) Form A and F samples were placed in chambers with silica gel to remove water (the relative humidity was measured to be ˜10% RH) at different temperatures. Form D samples were placed in chambers with water (relative humidity was estimated to be ˜100% RH) at different temperatures.
(§2) The HPLC purities and XRD patterns were obtained for each of Form A/F/D samples stored at various temperatures.

[2] = Storage stability study of solid forms, form change by XRD (Example 11); details: 10% RH
Description: For X-ray powder diffraction analysis, a PANalytical Empyrean X-ray powder diffractometer was used. The parameters are as follows:
as §1, §2

[3] = Storage stability of polymorphs, HPLC sepiapterin and impurity profile (Example 12); parameters: Impurity RRT 1.06 / Impurity RRT 1.08 / Impurity RRT 1.17 / Impurity RRT 1.21 / Impurity RRT 1.25 / Impurity RRT 0.62 / Impurity RRT 0.89 / Impurity RRT 0.95 / Impurity RRT 0.60: unit not given here
Description: Samples of sepiapterin free base polymorph Forms D, F, and A were stored at room temperature (RT), 35° C., and 50° C. The samples were analyzed by HPLC at 1 week and 4 week intervals. The HPLC parameters were as follows: [table]

[4] = Physical form stability to grinding and sieving (XRD before and after)
Description: A sample of sepiapterin free base was obtained commercially. […] The sepiapterin sample contained particles with an average particle size over 100 μm. The XRD pattern was determined before and after grinding to reduce the particle size such that it passes through a 140 mesh screen. This polymorph of sepiapterin free base is referred to as Form A herein.

[5] = 35° C./10% RH, 1 w, listed as Polymorph F
[6] = 35° C./10% RH, 4 w, listed as Polymorph F
[7] = 50° C./10% RH, 1 w, listed as Polymorph F
[8] = 50° C./10% RH, 4 w, listed as Polymorph F
[9] = RT/10% RH, 1 w, listed as Polymorph F
[10] = RT/10% RH, 4 w, listed as Polymorph F
[11] = 35° C./10% RH, 1 w, listed as Polymorph A
[12] = 35° C./10% RH, 4 w, listed as Polymorph A
[13] = 50° C./10% RH, 1 w, listed as Polymorph A
[14] = 50° C./10% RH, 4 w, listed as Polymorph A
[15] = RT/10% RH, 1 w, listed as Polymorph A
[16] = RT/10% RH, 4 w, listed as Polymorph A

## C[C@H](O)C(=O)C1=Nc2c(nc(N)[nH]c2=O)NC1 [Form F, sepiapterin]
[1]; 35° C., storage 1 week
  % of Initial: 99.7%
  Purity (area %): 99.4 area %
[1]; 35° C., storage 4 weeks
  % of Initial: 99.7%
  Purity (area %): 99.4 area %
[1]; 50° C., storage 1 week
  % of Initial: 99.4%
  Purity (area %): 99.2 area %
[1]; 50° C., storage 4 weeks
  % of Initial: 99.1%
  Purity (area %): 98.9 area %
[1]; RT, storage 1 week
  % of Initial: 99.7%
  Purity (area %): 99.4 area %
[1]; RT, storage 4 weeks
  % of Initial: 99.8%
  Purity (area %): 99.5 area %
[2]; 35° C., storage 1 week
  Form change: No
[2]; 35° C., storage 4 weeks
  Form change: No
[2]; 50° C., storage 1 week
  Form change: No
[2]; 50° C., storage 4 weeks
  Form change: No
[2]; RT, storage 1 week
  Form change: No
[2]; RT, storage 4 weeks
  Form change: No
[3]; 35° C./10% RH, 1 w
  Impurity RRT 0.60: <0.05
[3]; [5]
  Impurity RRT 0.95: 0.35
  Impurity RRT 1.08: 0.06
  Impurity RRT 1.17: 0.15
  Sepiapterin RRT 1.00 (amount of sepiapterin): 99.43%
[3]; 35° C./10% RH, 4 w
  Impurity RRT 0.60: <0.05
  Impurity RRT 1.08: <0.05
[3]; [6]
  Impurity RRT 0.95: 0.42
  Impurity RRT 1.17: 0.15
  Sepiapterin RRT 1.00 (amount of sepiapterin): 99.43%
[3]; 50° C./10% RH, 1 w
  Impurity RRT 0.60: <0.05
[3]; [7]
  Impurity RRT 0.95: 0.58
  Impurity RRT 1.08: 0.11
  Impurity RRT 1.17: 0.15
  Sepiapterin RRT 1.00 (amount of sepiapterin): 99.15%
[3]; 50° C./10% RH, 4 w
  Impurity RRT 0.60: 0.12
  Impurity RRT 1.17: 0.17
[3]; [8]
  Impurity RRT 0.95: 0.86
  Impurity RRT 1.08: <0.05
  Sepiapterin RRT 1.00 (amount of sepiapterin): 98.85%
[3]; 50° C./10% RH, 4 w, listed as polymorph F
  Sepiapterin RRT 1.00 (amount of sepiapterin): 98.85%
[3]; Initial
  Impurity RRT 0.60: <0.05
  Impurity RRT 1.08: <0.05
  Impurity RRT 1.17: 0.17
[3]; Initial, listed as Polymorph F
  Impurity RRT 0.95: 0.09
  Sepiapterin RRT 1.00 (amount of sepiapterin): 99.74%
[3]; Initial, listed as polymorph F
  Sepiapterin RRT 1.00 (amount of sepiapterin): 99.74%
[3]; RT/10% RH, 1 w
  Impurity RRT 0.60: <0.05
  Impurity RRT 1.17: 0.16
[3]; [9]
  Impurity RRT 0.95: 0.29
  Impurity RRT 1.08: 0.14
  Sepiapterin RRT 1.00 (amount of sepiapterin): 99.42%
[3]; RT/10% RH, 4 w
  Impurity RRT 0.60: <0.05
  Impurity RRT 1.08: <0.05
  Impurity RRT 1.17: 0.16
[3]; [10]
  Impurity RRT 0.95: 0.30
  Sepiapterin RRT 1.00 (amount of sepiapterin): 99.54%
[3]; storage at RT, 35° C., 50° C., 1 w and 4 w
  stability compared with polymorph A (in words): significantly greater stability
[4]
  physical form stability to grinding and sieving: confirms the stability

## C[C@H](O)C(=O)C1=Nc2c(nc(N)[nH]c2=O)NC1 [Form A, sepiapterin]
[1]; 35° C., storage 1 week
  % of Initial: 98.6%
  Purity (area %): 98.0 area %
[1]; 35° C., storage 4 weeks
  % of Initial: 96.7%
  Purity (area %): 96.1 area %
[1]; 50° C., storage 1 week
  % of Initial: 95.8%
  Purity (area %): 95.2 area %
[1]; 50° C., storage 4 weeks
  % of Initial: 89.1%
  Purity (area %): 88.5 area %
[1]; RT, storage 1 week
  % of Initial: 99.5%
  Purity (area %): 98.8 area %
[1]; RT, storage 4 weeks
  % of Initial: 98.8%
  Purity (area %): 98.2 area %
[1]; initial, before storage
  purity of initial samples by HPLC: 99.3 area %
[1]; storage at RT, 35° C., 50° C., 1 and 4 weeks
  stability as determined by HPLC (in words): significantly less stability
[2]; 35° C., storage 1 week
  Form change: No
[2]; 35° C., storage 4 weeks
  Form change: No
[2]; 50° C., storage 1 week
  Form change: No
[2]; 50° C., storage 4 weeks
  Form change: No
[2]; RT, storage 1 week
  Form change: No
[2]; RT, storage 4 weeks
  Form change: No
[3]; 35° C./10% RH, 1 w
  Impurity RRT 0.62: 0.24
  Impurity RRT 0.89: <0.05
  Impurity RRT 1.06: <0.05
  Impurity RRT 1.21: <0.05
  Impurity RRT 1.25: <0.05
[3]; [11]
  Impurity RRT 0.95: 1.36
  Impurity RRT 1.08: 0.28
  Impurity RRT 1.17: 0.16
  Sepiapterin RRT 1.00 (amount of sepiapterin): 97.97%
[3]; 35° C./10% RH, 4 w
  Impurity RRT 0.62: 1.03
  Impurity RRT 0.89: <0.05
  Impurity RRT 1.06: <0.05
  Impurity RRT 1.08: <0.05
  Impurity RRT 1.21: <0.05
  Impurity RRT 1.25: <0.05
[3]; [12]
  Impurity RRT 0.95: 2.70
  Impurity RRT 1.17: 0.16
  Sepiapterin RRT 1.00 (amount of sepiapterin): 96.06%
[3]; 50° C./10% RH, 1 w
  Impurity RRT 0.62: 0.68
  Impurity RRT 0.89: <0.05
  Impurity RRT 1.06: 0.45
  Impurity RRT 1.21: <0.05
  Impurity RRT 1.25: <0.05
[3]; [13]
  Impurity RRT 0.95: 3.48
  Impurity RRT 1.08: 0.08
  Impurity RRT 1.17: 0.16
  Sepiapterin RRT 1.00 (amount of sepiapterin): 95.15%
[3]; 50° C./10% RH, 4 w
  Impurity RRT 0.62: 2.59
  Impurity RRT 0.89: 0.06
  Impurity RRT 1.06: <0.05
  Impurity RRT 1.17: 0.17
  Impurity RRT 1.21: 0.06
  Impurity RRT 1.25: 0.11
[3]; [14]
  Impurity RRT 0.95: 7.67
  Impurity RRT 1.08: 0.85
  Sepiapterin RRT 1.00 (amount of sepiapterin): 88.49%
[3]; 50° C./10% RH, 4 w, listed as polymorph A
  Sepiapterin RRT 1.00 (amount of sepiapterin): 88.49%
[3]; Initial
  Impurity RRT 0.89: <0.05
  Impurity RRT 1.06: <0.05
  Impurity RRT 1.08: <0.05
  Impurity RRT 1.17: 0.17
  Impurity RRT 1.21: <0.05
  Impurity RRT 1.25: <0.05
[3]; Initial, listed as Polymorph A
  Impurity RRT 0.62: 0.08
  Impurity RRT 0.95: 0.42
  Sepiapterin RRT 1.00 (amount of sepiapterin): 99.33%
[3]; Initial, listed as polymorph A
  Sepiapterin RRT 1.00 (amount of sepiapterin): 99.33%
[3]; RT/10% RH, 1 w
  Impurity RRT 0.62: 0.16
  Impurity RRT 0.89: <0.05
  Impurity RRT 1.06: <0.05
  Impurity RRT 1.17: 0.16
  Impurity RRT 1.21: <0.05
  Impurity RRT 1.25: <0.05
[3]; [15]
  Impurity RRT 0.95: 0.77
  Impurity RRT 1.08: 0.11
  Sepiapterin RRT 1.00 (amount of sepiapterin): 98.80%
[3]; RT/10% RH, 4 w
  Impurity RRT 0.62: 0.37
  Impurity RRT 0.89: <0.05
  Impurity RRT 1.06: <0.05
  Impurity RRT 1.08: <0.05
  Impurity RRT 1.17: 0.16
  Impurity RRT 1.21: <0.05
  Impurity RRT 1.25: <0.05
[3]; [16]
  Impurity RRT 0.95: 1.29
  Sepiapterin RRT 1.00 (amount of sepiapterin): 98.18%
[4]
  physical form stability to grinding and sieving: confirms the physical form stability
